Results on 29 compounds are retold here after article PMC11188874, “HDAC6 Inhibition Releases HR23B to Activate Proteasomes, Expand the Tumor Immunopeptidome and Amplify T-cell Antimyeloma Activity” (Cancer Research Communications, 2024).

Values joined by “and” are separate entries in the source; they are usually repeats but may differ in a detail not shown here. Identical values can stand only once. Like-named read-outs stand apart in the source and are kept apart here. Peptide text beside a SMILES is read from it. * marks the point of attachment. Cbz = O=C(OCc1ccccc1)*

For series [1], the system named is proteasome ChT-like activity in RPMI-8226 cells. In words: Cell-based high-throughput screen of proteasome ChT-like activity (LLVY-R110). Details: species or system human. Particulars: 3 µmol/L, 21 hours, then LLVY-R110 18 hours.
Series [2] deals with purified proteasomes. As to the kind of experiment: Activity of proteasomes purified by conventional methods. Type of series: biochemical.
The subject of series [3] is proteasome ChT-like activity in MMCLs. As to the kind of experiment: Proteasome ChT-like activity in cultured multiple myeloma cells (LLVY-R110). Particulars: for proteasome activity (in words): MM cells, 1 uM, 72 h (Fig. S14C, S14D); for increase in proteasome activity: RPMI-8226 cells, 1 µmol/L, 72 hours (Fig. 1B, 1D).
The nature of series [4]: Cell viability, XTT assay. The class given is cell-based. Particulars: human, RPMI-8226 cells, XTT (Fig. 1C, 1D), read-out: cell viability maintained. The method, then: Cell viability was determined using the XTT assay ([23]). Briefly, 50,000 cells were added to 96-well plates in a volume of 250 µL in RPMI media that lacked phenol red. Drugs were added at indicated concentrations and plates incubated under standard conditions for 72 hours. XTT sodium salt tetrazolium reagent (Gold Biotechnology, catalog no. X-200) was diluted in PBS (1 mg/mL) containing phenazine methosulfate (PMS, 7.5 µg/mL). Cells were incubated with the XTT+PMS reagent for 3 hours at 37°C and absorbance was measured at 450 nm using a Molecular Devices i3x Spectramax plate reader.

Series [5] has as its target T1, HDAC10 (Homo sapiens, UniProt Q969S8).
T1 construct: purchased Reaction Biology (Malvern, PA)
T1 sequence (Q969S8 1-669): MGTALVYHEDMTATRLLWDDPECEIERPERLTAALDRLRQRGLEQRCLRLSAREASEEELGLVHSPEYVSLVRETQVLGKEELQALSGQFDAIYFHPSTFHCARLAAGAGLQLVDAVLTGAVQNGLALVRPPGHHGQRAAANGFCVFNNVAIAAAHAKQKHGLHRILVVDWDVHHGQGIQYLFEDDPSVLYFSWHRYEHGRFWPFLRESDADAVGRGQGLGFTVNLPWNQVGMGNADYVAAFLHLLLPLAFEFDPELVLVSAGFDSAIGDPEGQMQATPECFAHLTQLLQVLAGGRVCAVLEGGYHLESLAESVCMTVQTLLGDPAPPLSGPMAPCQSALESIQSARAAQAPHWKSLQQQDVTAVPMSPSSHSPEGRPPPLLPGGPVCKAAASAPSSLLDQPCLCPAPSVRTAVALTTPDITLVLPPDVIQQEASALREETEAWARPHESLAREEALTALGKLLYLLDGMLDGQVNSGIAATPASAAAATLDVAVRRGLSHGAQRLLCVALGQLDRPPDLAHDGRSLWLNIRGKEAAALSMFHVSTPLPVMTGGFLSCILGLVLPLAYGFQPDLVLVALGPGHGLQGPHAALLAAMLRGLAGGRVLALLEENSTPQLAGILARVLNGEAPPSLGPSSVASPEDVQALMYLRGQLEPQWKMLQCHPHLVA
As to the kind of experiment: In vitro biochemical activity assay, HDAC10. Particulars: 10-dose, 3-fold serial dilution; Data 1-3 are triplicates; substrate Ac-spermidine-AMC.

Series [6] concerns E.G7-Ova cells. In words: Quantitation of […]–MHC-I complex by flow cytometry. Type of series: cell-based, mouse. Particulars: normalized to untreated (Fig. 2A). (Flow cytometry measures light scatter and fluorescence of single cells or particles in a stream.)
Series [7] has as its system E.G7-Ova cells. In words: B3Z T-cell hybridoma assay, annexin-V/propidium iodide. The class given is cell-based, mouse. Particulars: pretreatment 1 µmol/L 72 hours, E:T 2:1 (Fig. 2C).
The subject of series [8] is 27 cancer cell lines. Particulars: 1 µmol/L, 72 hours.
Series [9] deals with 27 cancer cell lines. In words: Proteasome activity in a panel of cancer cell lines (LLVY-R110). Particulars: 1 µmol/L, 72 hours; for Number of Cell Lines: Both Increased: proteasome activity and class I presentation.
The subject of series [10] is E.G7-Ova cells. In words: Murine MHC-I immunopeptidome analysis by MS. The class given is cell-based, mouse. Particulars: 1 µmol/L, 72 hours.
Series [11] concerns RPMI-8226 cells. In words: Myeloma MHC-I immunopeptidome analysis by MS. The class given is cell-based, human. Particulars: 1 µmol/L.
Where [12] appears, read: RPMI-8226 multiple myeloma cells.

In the case of `COC[C@H](NC(=O)c1cnc(C)s1)C(=O)N[C@@H](COC)C(=O)N[C@@H](Cc1ccccc1)C(=O)[C@@]1(C)CO1` [ONX-0912], the “Fold-Decrease of proteasome ChT-like activity in the HTS” value (from here on “Fold-Decrease”) in series [1] is on record as 4 fold.

`CN(CCCCCCNc1ccnc2cc(Cl)ccc12)CCCCCCNc1ccnc2cc(Cl)ccc12` [DC-661]: the “Fold-Increase of proteasome ChT-like activity in the HTS” value (“Fold-Increase” below) in [1] was 1.6 fold. Also, the “direct effect on the activity of purified proteasomes” value (shortened to “direct effect on the activity”) in series [2] is “did not observe a direct effect”.

As to `CNc1ccc2oc(C[C@H]3O[C@@]4(CC[C@H]3C)O[C@H]([C@H](C)C(=O)c3ccc[nH]3)[C@H](C)C[C@H]4C)nc2c1C(=O)O` [Calcimycin], in [1], the “Fold-Decrease” value was determined as 5 fold.

`Nc1nc2ccc(OC(F)(F)F)cc2s1` [Riluzole]: the “direct effect on the activity” value in [2] is reported as “did not observe a direct effect”.

Turning to `COc1ccc(-c2ccc3ncc4c(c3c2)n(-c2ccc(N3CCNCC3)c(C(F)(F)F)c2)c(=O)n4C)cn1` [BGT226], in series [1], the “Fold-Decrease” value was found to be 25 fold.

Consider `COC1=C(OC)C(=O)c2ccccc2C1=O` [2,3-Dimethoxy-1,4-naphthoquinone], for which, in [1], the “Fold-Increase” value worked out at 1.2 fold.

Regarding `CC(=O)O[C@H]1CC[C@@]2(C)C(=CC[C@@H]3[C@@H]2CC[C@]2(C)C(c4cccnc4)=CC[C@@H]32)C1` [Abiraterone acetate], the “Fold-Increase” value in [1] was 1.7 fold. Further, in [2], the “direct effect on the activity” value is “did not observe a direct effect”.

For the compound `CN(C)CCc1c[nH]c2ccc(C[C@H]3COC(=O)N3)cc12` [Zolmitriptan], in [1], the “Fold-Decrease” value was found to be 4 fold.

In the case of `COc1cccc2c1C(=O)c1c(O)c3c(c(O)c1C2=O)C[C@@](O)(C(=O)CO)C[C@@H]3O[C@H]1C[C@H](N)[C@@H](O)[C@H](C)O1` [Epirubicin], the “Fold-Decrease” value in series [1] worked out at 4 fold.

Turning to `C1=C/COCc2cc(ccc2OCCN2CCCC2)Nc2nccc(n2)-c2cccc(c2)COC/1` [Pacritinib], the “Fold-Decrease” value in series [1] amounted to 5 fold.

Regarding `Cc1[nH]c2ccccc2c1CCNCc1ccc(/C=C/C(=O)NO)cc1` [panobinostat], the “proteasome activity (in words)” value in series [3] is on record as “did not significantly increase”.

`COc1ccc(C2CNC(=O)C2)cc1OC1CCCC1` (stereo not drawn) [Rolipram]: the “Fold-Increase” value in [1] is on record as 1.3 fold.

Turning to `C/C=C1\NC(=O)[C@H]2CSSCC/C=C/[C@H](CC(=O)N[C@H](C(C)C)C(=O)N2)OC(=O)[C@H](C(C)C)NC1=O` [romidepsin], the “proteasome activity (in words)” value in series [3] is recorded as “did not significantly increase”.

As for `CC(C)C[C@H](NC(=O)[C@@H](NC(=O)c1cccc(-c2ccccc2)n1)[C@@H](C)O)B(O)O` [CEP-18770], in series [1], the “Fold-Decrease” value is 4 fold.

On to `OCCN(CCO)c1nc(N2CCCCC2)c2nc(N(CCO)CCO)nc(N3CCCCC3)c2n1` [Dipyridamole], for which the “Fold-Increase” value in series [1] came out at 2.0 fold.

`O=C(CCCCCCC(=O)Nc1ccccc1)NO` [vorinostat, suberoylanilide hydroxamic acid]: the “proteasome activity (in words)” value in series [3] is “did not significantly increase”.

Take `CC[C@@H](C(=O)[C@@H](C)[C@@H](O)[C@H](C)[C@@H]1O[C@@H]([C@@H](CC)C(=O)O)CC[C@@H]1C)[C@H]1O[C@]2(C=C[C@@H](O)[C@]3(CC[C@@](C)([C@H]4CC[C@](O)(CC)[C@H](C)O4)O3)O2)[C@H](C)C[C@@H]1C` [Salinomycin]: the “Fold-Increase” value in series [1] was determined as 2.0 fold. Also, the “direct effect on the activity” value in [2] was “did not observe a direct effect”.

A word on the viability: it is the share of living cells, or the viability signal relative to a control. In general, IC50 refers to the concentration that inhibits the measured activity by half. Higher therefore signals lower potency. For `O=C(CCCCCCNC(=O)c1cnc(N(c2ccccc2)c2ccccc2)nc1)NO` [ACY-1215], in series [4] (setting [12]), the viability at 16 h, 1 µmol/L was not below 75%. Moreover, the half-inhibitory concentration (IC50) in series [5] was 0.368 µM and 0.333 µM and 0.356 µM. Also, the “increase in presentation of the class I molecule–SIINFEKL complex” value in series [6] was “over 3 fold”. Besides, in [7], the “number of CD8neg/annexin-V+/propidium iodide+ E.G7-Ova cells after coculture with B3Z cells” value is recorded as “significantly increased”. Further, the “Number of Cell Lines: Increased Class I Presentation” value in [8] stood at 19 cell lines. In addition, in [9], the “Number of Cell Lines: Increased Proteasome Activity” value is reported as 21 cell lines and the “Number of Cell Lines: Both Increased” value worked out at 18 cell lines. Moreover, the “increase in proteasome activity” value in series [3] is not below 30%.

As to `C=C[C@](C)(O)CC[C@@H]1[C@@]2(C)CCCC(C)(C)[C@@H]2CC[C@@]1(C)O` [Sclareol], in [1], the “Fold-Increase” value is given as 1.4 fold.

For the compound `CC(C)C[C@H](NC(=O)[C@H](CCc1ccccc1)NC(=O)CN1CCOCC1)C(=O)N[C@@H](Cc1ccccc1)C(=O)N[C@@H](CC(C)C)C(=O)[C@@]1(C)CO1` [Carfilzomib], the “Fold-Decrease” value in series [1] was 54 fold.

Take `C=C(C)[C@@H]1CC[C@]2(C(=O)O)CC[C@]3(C)[C@H](CC[C@@H]4[C@@]5(C)CC[C@H](O)C(C)(C)[C@@H]5CC[C@]43C)[C@@H]12` [Betulinic acid]: the “Fold-Increase” value in [1] was 1.3 fold.

The compound `Cn1cc(CNCC2CCN(c3ncc(C(=O)NO)cn3)CC2)c2ccccc21` [Quisinostat] showed a half-inhibitory concentration (IC50) in series [5] of 0.00489 µM.

Take `COc1ccc(C[C@H](NC(=O)[C@H](C)NC(=O)CN2CCOCC2)C(=O)N[C@@H](Cc2ccccc2)C(=O)C2(C)CO2)cc1` (stereo in doubt) [ONX-0914]: in [1], the “Fold-Decrease” value amounted to 4 fold.

As to `CO[C@H]1C[C@@H]2CC[C@@H](C)[C@@](O)(O2)C(=O)C(=O)N2CCCC[C@H]2C(=O)O[C@H]([C@H](C)C[C@@H]2CC[C@@H](O)[C@H](OC)C2)CC(=O)[C@H](C)/C=C(\C)[C@@H](O)[C@@H](OC)C(=O)[C@H](C)C[C@H](C)/C=C/C=C/C=C/1C` [Rapamycin], the “Fold-Increase” value in series [1] came out at 1.8 fold.

With `COCCn1c2c([n+](Cc3cnccn3)c1C)C(=O)c1ccccc1C2=O` [YM155], in series [1], the “Fold-Decrease” value is 11 fold.

For `CCN(CCO)CCCC(C)Nc1ccnc2cc(Cl)ccc12` (stereo not drawn) [Hydroxychloroquine], the “Fold-Increase” value in [1] stood at 1.2 fold.

Turning to `CC(C)C[C@@H](C=O)NC(=O)[C@H](CC(C)C)NC(=O)[C@H](CC(C)C)NC(=O)OCc1ccccc1` [MG-132] (Cbz-Leu-Leu-Leu-aldehyde), the “Fold-Decrease” value in [1] was determined as 16 fold.

As for `O=C(NO)c1cnc(NC2(c3ccccc3)CC2)nc1` [ACY-738], in series [1], the “Fold-Increase” value came out at 1.6 fold. In addition, in [4] (setting [12]), the viability at 16 h, 1 µmol/L is not below 75%. Besides, the “increase in presentation of the class I molecule–SIINFEKL complex” value in [6] is recorded as “over 3 fold”. For the same compound, the “number of CD8neg/annexin-V+/propidium iodide+ E.G7-Ova cells after coculture with B3Z cells” value in series [7] is listed as “significantly increased”. Further, in series [10], the “peak area of SIINFEKL compared with untreated” value was found to be 1.5 fold. In series [11] (72 hours), the “number of peptides increased more than 20-fold” value is recorded as “four”. Further, in series [11] (72 hours, 8,019 peptides detected), the “number of peptides with ≥2-fold increase” value is 118 peptides. Besides, the “Number of Cell Lines: Increased Class I Presentation” value in series [8] amounted to 23 cell lines. In series [9], the “Number of Cell Lines: Increased Proteasome Activity” value came to 19 cell lines and the “Number of Cell Lines: Both Increased” value amounted to 18 cell lines. The “increase in proteasome activity” value in series [3] was not below 30%.

Turning to `O.c1cnc2c(c1)ccc1cccnc12` [1,10-phenanthroline monohydrate], the “Fold-Increase” value in [1] amounted to 1.3 fold. In addition, the viability at 16 h, 1 µmol/L in series [4] is not below 75%. In addition, in series [3], the “increase in proteasome activity” value is given as not below 30%.
